The values below come from the Biogen ADME set (Fang et al. 2023).

As usually defined, the aqueous solubility is the concentration that dissolves in the medium under given conditions. The low end stands for a poorly soluble substance, the high end for a readily soluble substance.

The conditions of this data set: for aqueous solubility: pH 6.8.

In brackets after ≈: the same amount, converted by molar mass.

Consider `O=C(NCc1cc(F)cc(F)c1)c1ccccn1`, for which the MDR1-MDCK efflux ratio stood at 0.719; the intrinsic clearance, human liver microsomes was not above 4.74 mL/min/kg; the intrinsic clearance, rat liver microsomes turned out to be 51.6 mL/min/kg; the aqueous solubility came out at 43.4 µg/mL (≈ 175 µM).
`CC(C)c1cnc(COc2ccc(Br)nc2)o1`: the MDR1-MDCK efflux ratio is 0.527; the intrinsic clearance, human liver microsomes was found to be 73 mL/min/kg; the intrinsic clearance, rat liver microsomes is 983 mL/min/kg; the aqueous solubility came to 41.7 µg/mL (≈ 140 µM).
Regarding `CC1(C)Cc2cc(NC(=O)c3cnn4cccnc34)c(OCC3CC3)nc2O1`, the MDR1-MDCK efflux ratio is 0.316; the fraction unbound, human plasma was found to be 0.00631; the fraction unbound, rat plasma amounted to 0.0241; the aqueous solubility was found to be 0.7 µg/mL (≈ 1.84 µM).
For `CC#CC(=O)N1CC[C@@H](n2cc(-c3ccc(Oc4c(F)cccc4F)cc3)c3c(N)n[nH]c(=O)c32)C1`, the MDR1-MDCK efflux ratio came to 50.2; the fraction unbound, human plasma was 0.00845; the fraction unbound, rat plasma was determined as 0.00935; the intrinsic clearance, human liver microsomes was determined as 41.7 mL/min/kg. The molecule also yielded an intrinsic clearance, rat liver microsomes of 519 mL/min/kg and an aqueous solubility of 2.7 µg/mL (≈ 5.52 µM).
For the molecule `Cc1sc2nc(CN3CCC(C)CC3)nc(N3CCN(c4cnccn4)CC3)c2c1C`, the MDR1-MDCK efflux ratio came out at 9.31; the intrinsic clearance, human liver microsomes worked out at 228 mL/min/kg; the intrinsic clearance, rat liver microsomes amounted to 1980 mL/min/kg; the aqueous solubility worked out at 42 µg/mL (≈ 96 µM).
`Clc1ccc2c(NCCN3CCOCC3)ncnc2c1`: the MDR1-MDCK efflux ratio was 1.37; the intrinsic clearance, human liver microsomes came out at 11.7 mL/min/kg; the intrinsic clearance, rat liver microsomes was 213 mL/min/kg.
Regarding `CCc1cnc(CNC(=O)N2CCC(n3cncn3)CC2)s1`, the MDR1-MDCK efflux ratio was determined as 24.7; the intrinsic clearance, human liver microsomes was not above 4.74 mL/min/kg; the intrinsic clearance, rat liver microsomes was not above 10.7 mL/min/kg; the aqueous solubility amounted to 49.4 µg/mL (≈ 154 µM).
Regarding `O=S(=O)(c1cccnc1)N1CCC2(Cc3ccccc3C2)C1`, the MDR1-MDCK efflux ratio is 0.627; the intrinsic clearance, human liver microsomes is 91.2 mL/min/kg; the intrinsic clearance, rat liver microsomes was 5070 mL/min/kg.
`N#Cc1ccc(-c2csc(CCN3CCCC3=O)n2)cc1`: the MDR1-MDCK efflux ratio was found to be 0.985; the intrinsic clearance, human liver microsomes came out at 5.81 mL/min/kg; the intrinsic clearance, rat liver microsomes was determined as 67.4 mL/min/kg; the aqueous solubility amounted to 25.1 µg/mL (≈ 84.3 µM).
Consider `CCc1[nH]nc(NC2CCN(C(C)C)CC2)c1C`, for which the MDR1-MDCK efflux ratio came to 13.7; the intrinsic clearance, human liver microsomes is not above 4.74 mL/min/kg; the intrinsic clearance, rat liver microsomes came out at 163 mL/min/kg.
As to `Cc1ccc(C(=O)NC2CCN(CC#N)CC2)cc1Br`, the MDR1-MDCK efflux ratio was 0.9; the intrinsic clearance, human liver microsomes is not above 4.74 mL/min/kg; the intrinsic clearance, rat liver microsomes is 97.6 mL/min/kg; the aqueous solubility is 2.04 µg/mL (≈ 6.07 µM).
Taken in the same sequence, the figures for `CC(C)CNc1nnc(SCc2ccncc2)s1` were 1.03, 30.9 mL/min/kg, 631 mL/min/kg and 48 µg/mL (≈ 171 µM).
Taken in the same sequence, the figures for `O=C(CN1CCSC1=O)Nc1ccccc1F` were 0.739, not above 4.74 mL/min/kg, not above 10.7 mL/min/kg and 31.6 µg/mL (≈ 124 µM).
For the molecule `CCn1cc(C(=O)O)c(=O)c2c(N)c(F)c(NC3CCCCC3)cc21`, the fraction unbound, human plasma was 0.0268; the fraction unbound, rat plasma was found to be 0.0267; the intrinsic clearance, human liver microsomes is 8.72 mL/min/kg; the intrinsic clearance, rat liver microsomes came to 112 mL/min/kg.
The molecule `Cc1sc2ncnc(N3CCC(C(=O)Nc4ccccn4)CC3)c2c1C` showed an aqueous solubility of 1.85 µg/mL (≈ 5.03 µM).
`CC(C)(C)n1ncc(OCc2ccc(OCCOCCO)nc2)c(Cl)c1=O`: the MDR1-MDCK efflux ratio stood at 4.55; the intrinsic clearance, human liver microsomes is 8.19 mL/min/kg; the intrinsic clearance, rat liver microsomes came out at 88.1 mL/min/kg; the aqueous solubility was 32.5 µg/mL (≈ 81.7 µM).
Taken in the same sequence, the figures for `CCc1ccc(NC(=O)C2CCN(c3ccc4nncn4n3)CC2)cc1` were 13.6, 4.86 mL/min/kg, 34.6 mL/min/kg and 1.15 µg/mL (≈ 3.28 µM).
For the molecule `C#Cc1cccc(N(CCC(=O)NC(N)=O)Cc2cccs2)c1`, the MDR1-MDCK efflux ratio was determined as 1.88; the intrinsic clearance, human liver microsomes is 51.4 mL/min/kg; the intrinsic clearance, rat liver microsomes was determined as 1070 mL/min/kg.
Take `Cc1cccc2cnc(C3CCN(C(=O)CCc4ccno4)CC3)cc12`: the intrinsic clearance, human liver microsomes stood at 31.2 mL/min/kg and the intrinsic clearance, rat liver microsomes came to 729 mL/min/kg.
`Cc1nn(C(C)C)c(C)c1S(=O)(=O)NCC1CCN(C(=O)C2CC2)CC1`: the MDR1-MDCK efflux ratio turned out to be 83.8; the intrinsic clearance, human liver microsomes stood at 92.1 mL/min/kg; the intrinsic clearance, rat liver microsomes worked out at 445 mL/min/kg.
With `Fc1ccc(NCc2cccc(OCCN3CCOCC3)c2)nc1`, the MDR1-MDCK efflux ratio worked out at 0.773; the intrinsic clearance, human liver microsomes worked out at 10.2 mL/min/kg; the intrinsic clearance, rat liver microsomes was 280 mL/min/kg; the aqueous solubility is 39.6 µg/mL (≈ 120 µM).
On to `Cc1nccc(N(C)Cc2nc(-c3cccnc3)no2)n1`, for which the MDR1-MDCK efflux ratio amounted to 0.87; the intrinsic clearance, human liver microsomes stood at 8.62 mL/min/kg; the intrinsic clearance, rat liver microsomes came out at 200 mL/min/kg.
As to `O=C(CN1CCCc2ccc(F)cc21)N1CCNC1=O`, the MDR1-MDCK efflux ratio amounted to 0.896; the intrinsic clearance, human liver microsomes was not above 4.74 mL/min/kg; the intrinsic clearance, rat liver microsomes is 61.3 mL/min/kg; the aqueous solubility is 45.1 µg/mL (≈ 163 µM).
Turning to `Cn1cc(Br)cc1C(=O)N1CCc2nn[nH]c2C1`, the intrinsic clearance, human liver microsomes was not above 4.74 mL/min/kg and the intrinsic clearance, rat liver microsomes worked out at 43.8 mL/min/kg.
With `N#CCN1CCC(CNC(=O)c2c(F)ccc(F)c2F)CC1`, the MDR1-MDCK efflux ratio worked out at 1.76; the intrinsic clearance, human liver microsomes was 4.81 mL/min/kg; the intrinsic clearance, rat liver microsomes was 15.7 mL/min/kg.
For `CCCc1ncncc1C(=O)NCc1nncn1CCC`, in that order: 14.7, not above 4.74 mL/min/kg and 38.8 mL/min/kg.
Consider `Cc1cc(C)n2ncc(C(=O)Nc3cccc(C(=O)O)c3)c2n1`, for which the MDR1-MDCK efflux ratio stood at 0.709; the intrinsic clearance, human liver microsomes is not above 4.74 mL/min/kg; the intrinsic clearance, rat liver microsomes is not above 10.7 mL/min/kg; the aqueous solubility stood at 17.6 µg/mL (≈ 56.7 µM).
In turn, `CC(C)C[C@H](C(=O)N[C@H](C(=O)OC1CCCC1)c1ccccc1)[C@@H](O)C(=O)NO` showed an intrinsic clearance, human liver microsomes of 55.3 mL/min/kg and an intrinsic clearance, rat liver microsomes of 598 mL/min/kg.
On to `O=C(NCC1CCC2(CC1)OCCO2)c1[nH]nc2c1CCCC2`, for which the MDR1-MDCK efflux ratio was 5.92; the intrinsic clearance, human liver microsomes is 6.88 mL/min/kg; the intrinsic clearance, rat liver microsomes came out at 1270 mL/min/kg.
On to `Cc1cc(C(=O)N(C)Cc2ccc(Br)cc2)no1`, for which the MDR1-MDCK efflux ratio came out at 0.69; the intrinsic clearance, human liver microsomes turned out to be 92.8 mL/min/kg; the intrinsic clearance, rat liver microsomes was 941 mL/min/kg; the aqueous solubility was 64 µg/mL (≈ 207 µM).
As to `CNC(=O)Cc1csc(-c2ccc(C)cc2)n1`, the MDR1-MDCK efflux ratio was 0.708; the intrinsic clearance, human liver microsomes was 108 mL/min/kg; the intrinsic clearance, rat liver microsomes was 1010 mL/min/kg; the aqueous solubility came to 4.06 µg/mL (≈ 16.5 µM).
For `CCCCOc1ccc(C(=O)NCc2cc(C)on2)cc1`, in that order: 0.563, 11.8 mL/min/kg, 421 mL/min/kg and 4.2 µg/mL (≈ 14.6 µM).
With `CC(C)=CCOc1cccc(C(=O)NN2CCOCC2)c1`, the MDR1-MDCK efflux ratio was determined as 1.29; the intrinsic clearance, human liver microsomes was not above 4.74 mL/min/kg; the intrinsic clearance, rat liver microsomes was 589 mL/min/kg.
Consider `Cc1ccc(OCC(=O)Nc2cc(C)on2)nc1`, for which the intrinsic clearance, human liver microsomes was not above 4.74 mL/min/kg and the intrinsic clearance, rat liver microsomes was not above 10.7 mL/min/kg.
With `Cc1ccsc1C(=O)NCc1ccc2c(c1)OCCCO2`, the MDR1-MDCK efflux ratio is 0.582; the intrinsic clearance, human liver microsomes turned out to be 53.1 mL/min/kg; the intrinsic clearance, rat liver microsomes is 952 mL/min/kg; the aqueous solubility stood at 56.9 µg/mL (≈ 187 µM).
Consider `Cc1ncccc1NC(=O)OC(C)(C)C`, for which the MDR1-MDCK efflux ratio stood at 0.755; the intrinsic clearance, human liver microsomes is not above 4.74 mL/min/kg; the intrinsic clearance, rat liver microsomes came to 21.1 mL/min/kg.
Consider `Cc1csc(NC(=O)CCc2ccncc2)n1`, for which the MDR1-MDCK efflux ratio came to 0.876; the intrinsic clearance, human liver microsomes was not above 4.74 mL/min/kg; the intrinsic clearance, rat liver microsomes was found to be 45.3 mL/min/kg; the aqueous solubility was found to be 38.1 µg/mL (≈ 154 µM).
Take `O=S(=O)(NCC1C2CC3CC(C2)CC1C3)C1CCOCC1` (configuration not stated): the aqueous solubility was 58.2 µg/mL (≈ 186 µM).
For the molecule `c1ccc(-n2cnc3cc(NCc4ccccn4)ccc32)cc1`, the intrinsic clearance, human liver microsomes is 22.6 mL/min/kg; the intrinsic clearance, rat liver microsomes is 3200 mL/min/kg; the aqueous solubility turned out to be 18.4 µg/mL (≈ 61.3 µM).
Turning to `O=C(NCC1(c2ccc(F)cc2)CCOCC1)c1ccccn1`, the MDR1-MDCK efflux ratio was 0.793; the intrinsic clearance, human liver microsomes is 11.6 mL/min/kg; the intrinsic clearance, rat liver microsomes was 449 mL/min/kg; the aqueous solubility was 50 µg/mL (≈ 159 µM).
Regarding `Cc1cc(C)nc(-n2nc(C)c(CC(=O)NC3CCCCCC3)c2C)n1`, the MDR1-MDCK efflux ratio was 33.3; the intrinsic clearance, human liver microsomes was determined as 43.9 mL/min/kg; the intrinsic clearance, rat liver microsomes was determined as 832 mL/min/kg; the aqueous solubility turned out to be 54.6 µg/mL (≈ 154 µM).
For the molecule `CCS(=O)(=O)CC(=O)Nc1cc(C)ccc1C`, the intrinsic clearance, human liver microsomes is not above 4.74 mL/min/kg; the intrinsic clearance, rat liver microsomes was not above 10.7 mL/min/kg; the aqueous solubility is 40.4 µg/mL (≈ 158 µM).
Consider `COc1cccc(NC(=O)[C@H]2CCCN(S(=O)(=O)c3ccc(C)cc3)C2)c1`, for which the MDR1-MDCK efflux ratio was found to be 2.68; the intrinsic clearance, human liver microsomes turned out to be 38.1 mL/min/kg; the intrinsic clearance, rat liver microsomes was 2820 mL/min/kg; the aqueous solubility was 10 µg/mL (≈ 25.7 µM).
On to `CC(=O)Nc1ccc(CNCCOc2ccc(F)cc2F)cc1`, for which the MDR1-MDCK efflux ratio was found to be 1.57; the intrinsic clearance, human liver microsomes stood at 12.5 mL/min/kg; the intrinsic clearance, rat liver microsomes was found to be 114 mL/min/kg.
Regarding `CCn1c(=O)c2cc(OC)c(OC)cc2n(Cc2ccc(Cl)cc2)c1=O`, the aqueous solubility turned out to be 0.4 µg/mL (≈ 1.07 µM).
With `c1ccc(Oc2cccc(CN(CCN3CCOCC3)Cc3cccnc3)c2)cc1`, the MDR1-MDCK efflux ratio came to 1.33; the fraction unbound, human plasma stood at 0.00599; the fraction unbound, rat plasma was found to be 0.0139; the intrinsic clearance, human liver microsomes is 1250 mL/min/kg. This molecule also returned an intrinsic clearance, rat liver microsomes of 3870 mL/min/kg and an aqueous solubility of 66.7 µg/mL (≈ 165 µM).
